Experiments:
rat fetuses = experiment: Developmental toxicity in pregnant rats; format: in vivo
[1] = system: hepatic encephalopathy (HE), commonly-occurring infections; experiment: Infection rates in cirrhotic patients with HE on long-term rifaximin 550 mg BID (RCT and open-label maintenance); format: in vivo; settings: for Any infection: rate = number of subjects/PEY; for C. difficile infection / Cellulitis / Peritonitis / Pneumonia / Urinary tract/kidney infection: human, in vivo
Description: Cirrhosis patients can have an increased risk of infections and subsequent hospitalizations, leading to increased mortality. […] A description of the OLM and RCT can be found in WO 2011/005388, “METHODS OF TREATING HEPATIC ENCEPHALOPATHY,” which is incorporated herein by reference in its entirety. In the analysis below, the effect of long term RFX treatment on infection rates and antibiotic use was examined.
Patients with cirrhosis and ≥2 overt HE episodes within 12 months were enrolled in the RCT (RFX=140; placebo [PBO]=159); 170 new patients, in addition to 70 RFX and 82 PBO patients who rolled over from the RCT were enrolled in OLM. The “All RFX group” (n=392) consisted of RFX-treated patients in both studies. Infection rates per person exposure years (PEY) were compared across RCT and All RFX groups, and antibiotic use over time was examined.
In the 6 month RCT, RFX exposure was 50 PEY vs 46 PEY in the PBO group. Long term RFX exposure was for median=427 (2-1427) days, or 510 PEY. […] Overall, use of antibiotics (oral and intravenous) remained the same or declined with time.

[2] = system: C. difficile infection (CDI); experiment: Double-blind non-inferiority trial rifaximin 400 mg TID vs vancomycin 125 mg QID, 10 days, C. difficile infection; format: in vivo, human
Experimental: Criteria for entry into the trial were: • Age >=18 years old; • Had acute diarrhea at screening defined as >=3 unformed stools in the last 24 hours and at least one sign of enteric infection (fever, nausea, lose of appetite, vomiting, severe abdominal pain/discomfort); and • a positive C. diff stool toxin assay Endpoint:
The primary efficacy endpoint of the study was defined as the proportion of subjects achieving clinical success. Specifically, clinical success was defined as the absence of severe abdominal pain at Test of Cure (TOC), absence of fever (<38° C.) at TOC, and <3 unformed stools for two consecutive days at TOC.
Clinical success was defined as the: Absence of severe abdominal pain at TOC, absence of fever (<38° C.) at TOC, and <3 unformed stools for two consecutive days at TOC. Test of cure defined as Day 14+/−1 day.
Recurrence was defined to be a diarrhea and a positive C. diff stool toxin assay that occurred after initial clinical success.
Global cure of diarrhea was defined as subjects who were cured of diarrhea at TOC without recurrence at follow up.
Subjects who completed the study without achieving clinical success were censored at Day 14

[3] = Rifaximin N = 117, Vancomycin N = 115
[4] = Rifaximin vs Vancomycin, at TOC
[5] = Rifaximin vs Vancomycin, treatment period
[6] = adjusting for concomitant medication usage, Rifaximin N = 109, Vancomycin N = 112
[7] = adjusting for concomitant medication usage, Rifaximin N = 117, Vancomycin N = 115
[8] = adjusting for concomitant medication usage, Rifaximin vs Vancomycin
[9] = after initial clinical success, Rifaximin N = 67, Vancomycin N = 73
[10] = all subjects, Rifaximin N = 117, Vancomycin N = 115
[11] = at TOC, Rifaximin N = 108, Vancomycin N = 111
[12] = at TOC, Rifaximin N = 117, Vancomycin N = 115
[13] = cured at TOC without recurrence at follow up, Rifaximin N = 117, Vancomycin N = 115
[14] = subgroup Age <65, at TOC, Rifaximin N = 69, Vancomycin N = 62
[15] = subgroup Age >=65, at TOC, Rifaximin N = 39, Vancomycin N = 49
[16] = subgroup Female, at TOC, Rifaximin N = 68, Vancomycin N = 64
[17] = subgroup Male, at TOC, Rifaximin N = 40, Vancomycin N = 47

CO[C@H]1/C=C/O[C@@]2(C)Oc3c(C)c(O)c4c(O)c(c5c(nc6cc(C)ccn65)c4c3C2=O)NC(=O)/C(C)=C\C=C\[C@H](C)[C@H](O)[C@@H](C)[C@@H](O)[C@@H](C)[C@H](OC(C)=O)[C@@H]1C [Rifaximin, (2S,16Z,18E,20S,21S,22R,23R,24R,25S,26S,27S,28E)-5,6,21,23,25 Pentahydroxy-27-methoxy-2,4,11,16,20,22,24,26-octamethyl-2,7-(epoxypentadeca-(1,11,13)trienimino) benzofuro (4,5-e) pyrido(1,2-a) benzimidazole-1,15(2H)-dione,25-acetate]
Fetal malformations (rat fetuses; pregnant rats, dose levels that caused reduced body weight gain): eye malformations | Post-natal developmental effects in rat pups (rat fetuses; pregnant/lactating rats dosed from gestation to Day 20 post-partum, highest dose): not observed | Any infection ([1]; All RFX patients (n = 392), PEY = 510): 214 (0.072) N (rate*) | Any infection ([1]; RCT RFX 550 mg BID (n = 140), PEY = 50): 46 (0.112) N (rate*) | C. difficile infection [1]: 6 (0.012) N (rate*) | Cellulitis [1]: 34 (0.071) N (rate*) | Peritonitis [1]: 22 (0.044) N (rate*) | Pneumonia [1]: 42 (0.084) N (rate*) | Urinary tract/kidney infection [1]: 83 (0.193) N (rate*) | C. difficile infection ([1]; 6 months): 2 (0.040) N (rate*) | Cellulitis ([1]; 6 months): 3 (0.006) N (rate*) | Peritonitis ([1]; 6 months): 3 (0.060) N (rate*) | Pneumonia ([1]; 6 months): 4 (0.080) N (rate*) | Urinary tract/kidney infection ([1]; 6 months): 9 (0.187) N (rate*) | Continuing Illness No: % of subjects [2, 3]: 77% | Continuing Illness No: number of subjects [2, 3]: 90 | Continuing Illness Yes: % of subjects [2, 3]: 23% | Continuing Illness Yes: number of subjects [2, 3]: 27 | Global Cure of Diarrhea No: % of subjects [2, 3]: 29% | Global Cure of Diarrhea No: number of subjects [2, 3]: 34 | Recurrence Rate per Person-Year Exposure [2, 3]: 0.613 | Continuing Illness: Treatment Difference ([2]; Rifaximin vs Vancomycin): −9.2% | Global Cure of Diarrhea: Treatment Difference ([2]; Rifaximin vs Vancomycin): −3.0% | Recurrence of CDI: Treatment Difference ([2]; Rifaximin vs Vancomycin, after initial clinical success): 4.7% | Clinical Success: Treatment Difference [2, 4]: −6.2% | Diarrhea: Treatment Difference [2, 4]: −1.5% | Fever: Treatment Difference [2, 4]: −7.5% | Severe Abdominal Pain/Discomfort: Treatment Difference [2, 4]: −11.5% | Adjusted mean number of unformed stools-ANOVA: Treatment Difference (95% CI) [2, 5]: 0.46 (−0.08, 1.00) | Overall treatment difference in number of unformed stools-Mixed Model: Treatment Difference (95% CI) [2, 5]: 0.32 (−0.08, 0.72) | Diarrhea No: % of subjects [2, 6]: 65% | Diarrhea No: number of subjects [2, 6]: 71 | Diarrhea Yes: % of subjects [2, 6]: 35% | Diarrhea Yes: number of subjects [2, 6]: 38 | Clinical Success No: % of subjects [2, 7]: 50% | Clinical Success No: number of subjects [2, 7]: 59 | Clinical Success Yes: % of subjects [2, 7]: 50% | Clinical Success Yes: number of subjects [2, 7]: 58 | Clinical Success: Treatment Difference [2, 8]: −10.4% | Diarrhea: Treatment Difference [2, 8]: −8.1% | No Recurrence of CDI: % of subjects [2, 9]: 91% | No Recurrence of CDI: number of subjects [2, 9]: 61 | Recurrence of CDI: % of subjects [2, 9]: 9% | Recurrence of CDI: number of subjects [2, 9]: 6 | Recurrence No: % of subjects [2, 10]: 95% | Recurrence No: number of subjects [2, 10]: 111 | Recurrence Yes: % of subjects [2, 10]: 5% | Recurrence Yes: number of subjects [2, 10]: 6 | Diarrhea No: % of subjects [2, 11]: 80% | Diarrhea No: number of subjects [2, 11]: 86 | Diarrhea Yes: % of subjects [2, 11]: 20% | Diarrhea Yes: number of subjects [2, 11]: 22 | Fever No: % of subjects [2, 11]: 91% | Fever No: number of subjects [2, 11]: 98 | Fever Yes: % of subjects [2, 11]: 9% | Fever Yes: number of subjects [2, 11]: 10 | Severe Abdominal Pain/Discomfort No: % of subjects [2, 11]: 74% | Severe Abdominal Pain/Discomfort No: number of subjects [2, 11]: 80 | Severe Abdominal Pain/Discomfort Yes: % of subjects [2, 11]: 26% | Severe Abdominal Pain/Discomfort Yes: number of subjects [2, 11]: 28 | Clinical Success No: % of subjects [2, 12]: 43% | Clinical Success No: number of subjects [2, 12]: 50 | Clinical Success Yes: % of subjects [2, 12]: 57% | Clinical Success Yes: number of subjects [2, 12]: 67 | Global Cure of Diarrhea Yes: % of subjects [2, 13]: 71% | Global Cure of Diarrhea Yes: number of subjects [2, 13]: 83 | Adjusted mean number of unformed stools-ANOVA ([2]; during the treatment period, Rifaximin N = 117, Vancomycin N = 115): 2.36 | Diarrhea: % of subjects [2, 14]: 23% | Diarrhea: number of subjects [2, 14]: 16 | No Diarrhea: % of subjects [2, 14]: 77% | No Diarrhea: number of subjects [2, 14]: 53 | Diarrhea: Treatment Difference ([2]; subgroup Age <65, at TOC, Rifaximin vs Vancomycin): −3.8% | Diarrhea: % of subjects [2, 15]: 15% | Diarrhea: number of subjects [2, 15]: 6 | No Diarrhea: % of subjects [2, 15]: 85% | No Diarrhea: number of subjects [2, 15]: 33 | Diarrhea: Treatment Difference ([2]; subgroup Age >=65, at TOC, Rifaximin vs Vancomycin): 3.0% | Diarrhea: % of subjects [2, 16]: 21% | Diarrhea: number of subjects [2, 16]: 14 | No Diarrhea: % of subjects [2, 16]: 79% | No Diarrhea: number of subjects [2, 16]: 54 | Diarrhea: Treatment Difference ([2]; subgroup Female, at TOC, Rifaximin vs Vancomycin): −3.4% | Diarrhea: % of subjects [2, 17]: 20% | Diarrhea: number of subjects [2, 17]: 8 | No Diarrhea: % of subjects [2, 17]: 80% | No Diarrhea: number of subjects [2, 17]: 32 | Diarrhea: Treatment Difference ([2]; subgroup Male, at TOC, Rifaximin vs Vancomycin): 1.3%
